From patent US20240132431A1, “METHOD FOR ALKYLATING ACIDIC FUNCTIONAL GROUP” (Chugai Seiyaku Kabushiki Kaisha, priority 2021, published 2024)
Read-outs that look alike come from different tables or passages of the source. Blank lines part the entries; values can stand above or below the compound they belong to.

Columns and labels:
[1] = cited from earlier work; for Base/pKBH^+ (CH3CN): pKa of conjugate acid of the base in CH3CN; for Base/pKBH+ (CH3CN): transcribed from the Aldrich web site for phosphazene bases
[2] = target: T1, Bcl-2 protein (Recombinant Human Bcl-2 Protein) (Homo sapiens, UniProt P10415); test: Binding evaluation of mixture library compounds to Bcl-2 using AS-MS (affinity selection mass spectrometry); settings: for ASMS ratio (%) n = 1 / ASMS ratio (%) n = 2: AS-MS, mixture library, Bcl-2, ASMS Ratio(%)=(A−C)/B×100; for ASMS ratio (%) n = 1: replicate n = 1; for ASMS ratio (%) n = 2: replicate n = 2
T1 construct: purchased Novus NBP2-34889
T1 sequence (P10415 whole entry): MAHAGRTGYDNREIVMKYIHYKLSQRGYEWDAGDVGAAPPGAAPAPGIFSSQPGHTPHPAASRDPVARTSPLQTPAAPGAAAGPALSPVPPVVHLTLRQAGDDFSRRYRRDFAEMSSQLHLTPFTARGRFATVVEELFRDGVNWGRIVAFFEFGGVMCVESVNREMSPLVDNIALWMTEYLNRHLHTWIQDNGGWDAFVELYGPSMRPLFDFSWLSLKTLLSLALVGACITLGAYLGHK
How it was run: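 ASMS Ratio (%) was calculated as (A−C)/B×100, where A is the protein sample after SEC, B the protein-free sample without SEC and C the protein-free sample after SEC. Each compound was at […] in a 1200-member pool with 20 μM Bcl-2, incubated 1 h at 23° C.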

[3] = target: T2, human Bcl-2 protein (Homo sapiens, UniProt P10415); test: Binding evaluation of compounds to Bcl-2 by surface plasmon resonance (SPR)
T2 construct: purchased Novus Biologicals
T2 sequence (P10415 whole entry): as above
Method: In order to analyze the binding affinity of the compounds shown in [Table AK-O1] and synthesized in Example 8 to Bcl-2, the surface plasmon resonance method was used. Biacore T200 (GE Healthcare) was used as the apparatus, and HBS (10 mM HEPES-NaOH, 150 mM NaCl, pH 7.4) to which 1 mM DTT, 3 mM EDTA, 0.01% Tween 20, and 4% DMSO had been added was used as the running buffer. The human Bcl-2 protein (Novus Biologicals) was biotinylated using EZ-Link Sulfo-NHS-LC-LC-biotin (Thermofisher scientific) and immobilized on the surface of Sensor Chip SA (GE Healthcare). Thereafter, compound solutions of multiple concentrations and the running buffer (blank) were added to the Bcl-2 immobilized surface to obtain the binding response of the compounds. The measurement was carried out at 15° C.

[4] = Table 3-5-3, from Aldrich web site and Chem. Eur. J. 2021, 27, 4216-4229
[5] = Table 3-5-1, transcribed from Aldrich web site
[6] = Table 3-5-2, transcribed from Aldrich web site
[7] = first value in parentheses, (A−C)/B×100, 1200-compound mixture, Bcl-2 20 μM
[8] = second value in parentheses, (A−C)/B×100, 1200-compound mixture, Bcl-2 20 μM
[9] = binding to Bcl-2, compounds evaluated before library synthesis, read-out: KD

SMILES: CN(C)C(=NC(C)(C)C)N(C)C [BTMG, 2-tert-butyl-1,1,3,3-tetramethylguanidine]
- Base/pKBH^+ (CH3CN) [1, 4]: (23.6)

SMILES: CN(C)P(=NC(C)(C)C)(N(C)C)N(C)C [P1tBu, tert-Butylimino-tris(dimethylamino)phosphorane]
- Base/pKBH+ (CH3CN) ([1]; Table 2-2): 26.9
- Base/pKBH+ (CH3CN) ([1]; Table 3-4): P1tBu (26.9)
- Base/pKBH^+ (CH3CN) [1, 5]: (26.9)
- Base/pKBH^+ (CH3CN) [1, 6]: (26.9)
- Base/pKBH^+ (CH3CN) [1, 4]: (26.9)

SMILES: C1CN=C2NCCCN2C1 [TBD, 1,5,7-triazabicyclo[4.4.0]dec-5-ene]
- Base/pKBH^+ (CH3CN) [1, 4]: (26.0)

SMILES: CCN=P(N=P(N(C)C)(N(C)C)N(C)C)(N(C)C)N(C)C [P2Et, 1-Ethyl-2,2,4,4,4-pentakis(dimethylamino)-2λ^5,4λ^5-catenadi(phosphazene)]
- Base/pKBH+ (CH3CN) ([1]; Table 2-2): 32.9
- Base/pKBH+ (CH3CN) ([1]; Table 3-1): (32.9)
- Base/pKBH^+ (CH3CN) ([1]; Table 3-3, transcribed from Aldrich web site): (32.9)
- Base/pKBH^+ (CH3CN) [1, 4]: (32.9)

SMILES: CN(C)P(=NC(C)(C)C)(N=P(N(C)C)(N(C)C)N(C)C)N(C)C [P2tBu, 1-tert-Butyl-2,2,4,4,4-pentakis(dimethylamino)-2λ^5,4λ^5-catenadi(phosphazene)]
- Base/pKBH+ (CH3CN) ([1]; Table 3-1): (33.5)
- Base/pKBH+ (CH3CN) ([1]; Table 3-4): P2tBu (33.5)

SMILES: CCN(C(C)C)C(C)C [DIPEA, N,N-Diisopropylethylamine]
- pKBH+ value in CH3CN ([1]; Example 3-5-3, Aldrich web site and Chem. Eur. J. 2021, 27, 4216-4229): 18.8
- Base/pKBH^+ (CH3CN) [1, 4]: (18.8)

SMILES: CC(C)(C)N=P(N1CCCC1)(N1CCCC1)N1CCCC1 [BTPP, tert-Butylimino-tri(pyrrolidino)phosphorane]
- Base/pKBH^+ (CH3CN) [1, 5]: (28.4)
- Base/pKBH^+ (CH3CN) [1, 6]: (28.4)
- Base/pKBH^+ (CH3CN) [1, 4]: (28.4)

- ASMS ratio (%) n = 1 [2]: 21.4%
- ASMS ratio (%) n = 2 [2]: 22.5%
- ASMS ratio (%) [2, 7]: 21.4%
- ASMS ratio (%) [2, 8]: 22.5%
- Equilibrium dissociation constant KD ([3]; Biacore T200, biotinylated human Bcl-2 immobilized on Sensor Chip SA, 15° C., compounds found by AS-MS evaluation of synthesized library): Bound
SMILES: CCOc1cncc(-c2ccccc2CCC(=O)N2CCN(c3ccc(C(=O)NS(=O)(=O)c4ccc(NCCSc5ccccc5)c([N+](=O)[O-])c4)nn3)CC2)c1 [B2Q012-01, 6-[4-[3-[2-(5-ethoxypyridin-3-yl)phenyl]propanoyl]piperazin-1-yl]-N-[3-nitro-4-(2-phenylsulfanylethylamino)phenyl]sulfonylpyridazine-3-carboxamide]

- ASMS ratio (%) n = 1 [2]: 142.5%
- ASMS ratio (%) n = 2 [2]: 326.4%
- ASMS ratio (%) [2, 7]: 142.5%
- ASMS ratio (%) [2, 8]: 326.4%
- Kd ([3]; Biacore T200, biotinylated human Bcl-2 immobilized on Sensor Chip SA, 15° C., compounds found by AS-MS evaluation of synthesized library, read-out: Equilibrium dissociation constant KD): 700 nM
SMILES: CCOc1cccc(-c2ccc(CN3CCN(c4ccc(C(=O)NS(=O)(=O)c5ccc(NCCSc6ccccc6)c([N+](=O)[O-])c5)cc4)CC3)cc2C)c1 [B2Q047-01, 4-[4-[[4-(3-ethoxyphenyl)-3-methylphenyl]methyl]piperazin-1-yl]-N-[3-nitro-4-(2-phenylsulfanylethylamino)phenyl]sulfonylbenzamide]
- equilibrium dissociation constant KD compared to compound B2Q045-01 ([3]; binding to Bcl-2): smaller equilibrium dissociation constants KD

- ASMS ratio (%) ([2]; n = 1): −0.2%
- ASMS ratio (%) ([2]; n = 2): 0.0%
- Equilibrium dissociation constant KD ([3]; Biacore T200, 15° C., compounds synthesized before performing library synthesis): Bound
- Kd [3, 9]: > 20000 nM
SMILES: CCOc1cncc(-c2ccccc2CN2CCN(c3ccc(C(=O)NS(=O)(=O)c4ccc(NCCSc5ccccc5)c(C(F)(F)F)c4)cc3)CC2)c1 [B2R046-01, 4-[4-[[2-(5-Ethoxypyridin-3-yl)phenyl]methyl]piperazin-1-yl]-N-[4-(2-phenylsulfanylethylamino)-3-(trifluoromethyl)phenyl]sulfonylbenzamide]

- ASMS ratio (%) n = 1 [2]: 49.9%
- ASMS ratio (%) n = 2 [2]: 49.9%
- ASMS ratio (%) [2, 7]: 49.9%
- ASMS ratio (%) [2, 8]: 49.9%
- Kd [3, 9]: 1200 nM
SMILES: CCOc1cccc(-c2ccccc2CN2CCN(c3ccc(C(=O)NS(=O)(=O)c4ccc(NCCSc5ccccc5)c([N+](=O)[O-])c4)cc3)CC2)c1 [B2Q045-01, 4-[4-[[2-(3-ethoxyphenyl)phenyl]methyl]piperazin-1-yl]-N-[3-nitro-4-(2-phenylsulfanylethylamino)phenyl]sulfonylbenzamide]
